Measured values published in patent US20160346283A1, “Various Compounds as Autophagy Stimulants” (Velgene 3 Limited, priority 2013, published 2016).

What was measured:
[1] = test system: GFP-RFP-LC3 HeLa cell line; assay: GFP-RFP-LC3 HeLa autophagy reporter cell assay (fluorescence microscopy); type: cell-based, human; details: for number of red foci (autolysosomes): 10.0 μM, 6 hours, compared to negative control (DMSO)
Procedure: The GFP-RFP-LC3 HeLa cell line (Settembre et al, Science, 2011) was cultured in DMEM (Dulbecco's Modified Eagle's Medium, Sigma, D7777) containing 4500 mg/l glucose, 10% heat inactivated FCS (Merck), 40 μg/ml gentamycin (Hungaropharma) and 600 μg/ml G418 (Sigma, G8168). Drug candidates […]-0696, […]-7132 and […]-1567 were obtained from the ENAMINE molecule bank. 3×10^4 cells were plated onto 13 mm diameter poly-D-lysine coated coverslips in 24-well plates (Greiner) with 24 hours before the treatment. […] As controls, 0.1 and 1% DMSO, 200 nM rapamycin (autophagy inductor) and 100 nM bafilomycin A1 (an autophagy inhibitor) were used. For fluorescence microscopy, cells were fixed in 4% paraformaldehyde (Taab) and mounted in mowiol 4.88 (Polysciences) supplemented with bis-benzimide (Sigma) for nuclei staining. 5 epifluorescent pictures were taken in each condition by a BX51 microscope (Olympus) fitted with a FluoViewII camera and the AnalysisPro software (Olympus), using a 60×/1.4 oil Plan objective and the appropriate filter sets (DAPI: BP330-385/DM400/BA420; GFP: BP460-500/DM505/BP510-560; RFP: BP480-550/DM570/BA590). […] RFP: red fluorescence protein-autolysosome (mature autophagic compartment) GFP: green fluorescence protein Atg8: Autophagy-related protein 8-the most frequently used marker for autophagy Yellow: RFP and GFP (merged)-autophagosome (the primary autophagic structure)

[2] = test system: Drosophila melanogaster transgenic for an mCherry:Atg8 reporter (fat body); assay: mCherry:Atg8 reporter in fat body of Drosophila L3 larvae; type: in vivo; details: L3 larva, 1.0 uM, 2 hours
Procedure: Flies with the genotype of hsFlp:pAct<CD2<Gal4, UAS-nlsGFP, r4:mCherry:Atg8a were used. Microscopic images were taken from the fat body of wandering larvae at the L3 stage. Note that in well-fed larvae at the same stage, no autophagic activity is visible. 2 hours before the test, 90-94 hours larvae were transferred onto yeast suspension (0.5 g yeast extract 2.5 ml water, homogenization and boiling). […] Larvae were cultured in this medium for 2 hours. Preparation of fat bodies was performed in PBS solution. For covering, 8:2 ratio of glycerine:PBS was used (supplemented with 10 mM Hoechst solution).
Imaging was taken with a Zeiss AxioImager Z1 fluorescence microscope, supplemented with Apotome semiconfocal setup, 400× magnification, the same exposition time.
Examining T544-1567 (inhibitor), hsFlp; pAct<CD2<Gal4, UAS-nlsGFP, r4:mCherry:Atg8a flies were crossed with animals of yw; (EP)EDTP^EY22967 genotype (the autophagy antagonist EDTP/Jumpy is clonally overexpressed in fat body).
Cells with overactivated EDTP/Jumpy are in green due to the presence of the GFP transgene. Blue colour (DAP staining) indicates the nuclei (DNA). Red dots (mCherry:Atg8) indicate autophagy structures (autophagosomes+autolysosomes). […]

mice (pancreas, liver) = assay: Autophagic activity in mouse organs by electron microscopy; type: in vivo; details: 50 uMol intraperitoneal, 2.5 hours
Procedure: 50 uMol of effective molecules were dissolved in 10% DMSO and were administered intraperitoneously. After 2.5 hours the animals were sacrificed and their organs removed. The organs were transferred to tissue cultivating solution.
The organs were prepared for electronmicroscopic studies by standard preparation techniques. The ultrathin slices were prepared using Reichert-Jung Ultracut-E type ultramicrotome. The slides were investigated by JEM Jeol 1011 electron microscope.

| Compound | accumulation of autophagosomes (yellow foci), fusion with lysosomes blocked ([1]; 100 nM bafilomycin A1, 6 hours) | number of red foci (autolysosomes) [1] | autophagy activity (autolysosome accumulation) ([1]; larger dose, 50 uM) | red dots (mCherry:Atg8 autophagy structures) in fat body [2] | autophagic activity (autophagosomes and autolysosomes) in liver (mice (pancreas, liver)) | autophagic activity (autophagosomes and autolysosomes) in pancreas (mice (pancreas, liver)) |
| --- | --- | --- | --- | --- | --- | --- |
| CO/C1=C\C(C)=C\[C@@H](C)[C@@H](O)[C@@H](C)C/C(C)=C/C=C/[C@H](OC)[C@@H]([C@@H](C)[C@@H](O)[C@H](C)[C@@]2(O)C[C@@H](O)[C@H](C)[C@@H](C(C)C)O2)OC1=O [Bafilomycin A1, reference compound] | yellow foci accumulate in large quantities |  |  |  |  |  |
| O=C1C([N-]S(=O)(=O)c2ccc([N+](=O)[O-])cc2)=C([n+]2c[nH]c3ccccc32)C(=O)c2ccccc21 [T0501-7132] |  | induces the accumulation the autolysosomes | markedly elevated activity |  |  |  |
| CC(Sc1nc2ccccc2c(=O)n1C1CCCC1)C(=O)N1CCc2ccccc21 (stereo not shown) [T558-0696] |  | increases the number of red foci (autolysosomes) |  | increased number of red dots | pronounced autophagic activity | pronounced autophagic activity |
